# Square brackets hold non-standard residues; d marks the D form. Peptide text beside a SMILES is read from it. Aoe = N[C@@H](CCCCCC(=O)[C@@H]1CO1)C(=O)O
# Experiments:
# [1] = molecular target: T1, Histone deacetylase HD2 (Zea mays, UniProt Q94F81); assay: Inhibitory concentration against histone deacetylase activity
# T1 sequence (Q94F81 whole entry): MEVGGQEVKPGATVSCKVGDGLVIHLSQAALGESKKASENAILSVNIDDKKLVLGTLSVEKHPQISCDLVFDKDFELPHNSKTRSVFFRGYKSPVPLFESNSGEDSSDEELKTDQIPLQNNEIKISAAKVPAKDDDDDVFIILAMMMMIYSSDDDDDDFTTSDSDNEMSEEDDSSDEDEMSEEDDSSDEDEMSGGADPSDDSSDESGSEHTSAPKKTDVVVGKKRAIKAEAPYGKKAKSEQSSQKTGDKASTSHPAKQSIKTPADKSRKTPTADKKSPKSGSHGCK
# [2] = molecular target: T1, Histone deacetylase HD2; assay: Experimental anti-HDAC (anti-histone deacetylase) activity of the compound
# [3] = molecular target: T2, Histone deacetylase HD2 (Zea mays) (UniProt Q94F81); assay: Percent inhibition of histone deacetylase activity at 30 uM
# T2 sequence (whole entry): T1 sequence (Q94F81 whole entry)
# [4] = molecular target: T2, Histone deacetylase HD2 (Zea mays); assay: Percent inhibition of histone deacetylase activity at 5 mM
SMILES,IC50 [1] [nM],Ki [2] [nM],inhibition [3] [%],inhibition [4] [%]
Cn1cc(C(=O)c2ccccc2)cc1/C=C/C(=O)NO,3800,2290,86,–
CN(C)c1ccc(C(=O)c2cc(/C=C/C(=O)NO)n(C)c2)cc1,2400,1450,88,–
COc1ccc(C(=O)c2cc(/C=C/C(=O)NO)n(C)c2)cc1,2900,1740,75.2,–
Cn1cc(C(=O)c2ccccc2)cc1/C=C/C(=O)NN,–,–,0.2,–
O=C1N[C@@H](Cc2ccccc2)C(=O)N2CCC[C@@H]2C(=O)N[C@@H](CCCCCC(=O)[C@@H]2CO2)C(=O)N[C@H]1Cc1ccccc1 [TRAPOXIN B] (cyclo(FF[dP][Aoe])),10,–,–,–
Cn1cc(C(=O)c2ccc(Cl)cc2)cc1/C=C/C(=O)NO,2400,1450,87,–
Cc1ccc(C(=O)c2cc(/C=C/C(=O)NO)n(C)c2)cc1,1900,1120,86.4,–
Cn1cc(C(=O)c2ccc(F)cc2)cc1/C=C/C(=O)NO,3800,2290,84,–

# Results, then the compound that gave them:
IC50 [1] [nM],Ki [2] [nM],inhibition [3] [%],inhibition [4] [%],SMILES
3900,2340,78,–,Cn1cc(C(=O)c2ccc([N+](=O)[O-])cc2)cc1/C=C/C(=O)NO
36800,4.37,45,–,Cn1cc(C(=O)c2ccccc2)cc1CCC(=O)NO
–,–,0.9,–,Cn1cc(C(=O)c2ccccc2)cc1/C=C/C(=O)NCCO
–,132,–,–,O=C(CCCCCCC(=O)Nc1ccccc1)NO [VORINOSTAT]
–,–,–,35,CCCC(=O)[O-].[Na+]

# From ChEMBL document CHEMBL1134508, “3-(4-aroyl-1H-pyrrol-2-yl)-N-hydroxy-2-propenamides, a new class of synthetic histone deacetylase inhibitors” (J Med Chem, 2001)
